Experimental data taken from patent publication US12509460B2 (Skyhawk Therapeutics, Inc., priority 2019, dated 2025).
pEC50: −log10 of the molar value. Read-outs that look alike come from different tables or passages of the source.

Legend:
[1] = test system: SMN protein in spinal muscular atrophy (SMA) patient fibroblasts (GM03813, Coriell); assay: SMN protein assay, Mesoscale Discovery (MSD); assay type: cell-based, human; conditions: read-out: SMN2 protein EC50
Method: Example A12: SMN Protein Assay
Compounds are tested on spinal muscular atrophy (SMA) patient fibroblasts (GM03813, Coriell) at doses ranging from 2.5 μM to 0.6 nM. 7000 cells/well are seeded in 96-well plates. Compounds are incubated for 48 hours and the cells were lysed with 100 μL of lysis buffer. 20 μL of lysate is used for SMN protein measurement by Mesoscale Discovery (MSD) assay developed by PharmOptima (Michigan). A standard curve prepared with SMN protein ranging from 1 μg/ml to 19.5 pg/ml is used in each MSD plate to calculate the absolute SMN protein amount in each sample.

MDR1 = assay: Blood-brain-barrier (BBB) penetration potential via MDCK-MDR1 permeability assay; conditions: dog, MDCK-MDR1, pH 7.4, MDCK-MDR1: Efflux
MDR1 (P-gp) [2] = assay: as above; conditions: dog; for Papp A→B at 120 min, 5 μM: MDCK-MDR1, pH 7.4, MDCK-MDR1: Papp A-B; for Papp B→A at 120 min, 5 μM: MDCK-MDR1, pH 7.4, MDCK-MDR1: Papp B-A
[3] = test system: MDR1-MDCK cell monolayers; assay: as above
[4] = test system: mHTT protein in GM04724 (CAG 70/20) Huntington's disease patient lymphoblast cells; assay: mHTT protein assay, 2B7-MW1 assay via Mesoscale Discovery (MSD); assay type: cell-based, human
Method: Example A10: mHTT Protein Assay
Compounds are tested on GM04724 (CAG 70/20) Huntington's disease patient lymphoblast cells at doses ranging from 10 μM to 0.6 nM. 4,500 cells/well are seeded in 384 well plates. One plate replica is carried out for parallel viability testing by CellTiter Glo (CTG). Compounds are incubated for 48 hours. mHTT protein levels are assessed by the 2B7-MW1 assay via Mesoscale Discovery (MSD) as previously reported (Macdonald et al., 2014). The antibody pair is comprised of previously characterized monoclonals (2B7 and MW1) interrogating two regions for HTT conformation and biological properties: the N, 17 domain and the polyQ domain (Baldo et al., 2012; Ko et., 2001). 2B7-MW1 is […] specific levels of HTT at the time of treatment. 2B7-MW1 is dependent on polyQ expansion (e.g., the higher the expansion the higher the signal) and on mHTT size (e.g., a similar polyQ will give higher signal with smaller HTT size). The viability readout is carried out by CTG according to the manufacturer's instructions.

MDR1 (P-gp) [5] = assay: in vitro; conditions: dog, MDCK-MDR1, pH 7.4
[6] = test system: MDR1-MDCK cell monolayers; conditions: dog, MDCK-MDR1, 120 min, 5 μM, pH 7.4
[7] = SMA patient fibroblasts GM03813, 48 hours, MSD
[8] = GM04724 Huntington's disease patient lymphoblasts
[9] = SMA patient fibroblasts (GM03813), 48 hours
[10] = GM04724 (CAG 70/20) Huntington's disease patient lymphoblasts

Row | SMILES | pEC50 [1, 7] | efflux ratio at 120 min, 5 μM (MDR1; efflux ratio) | Papp A→B at 120 min, 5 μM (MDR1 (P-gp) [2]; A-B direction) [×10⁻⁶ cm/s] | Papp B→A at 120 min, 5 μM (MDR1 (P-gp) [2]; B-A direction) [×10⁻⁶ cm/s] | MDCK-MDR1: % Recov A-B ([3]; A-B direction) [%] | MDCK-MDR1: % Recov B-A ([3]; B-A direction) [%] | pEC50 [4, 8] | pEC50 [1, 9] | efflux ratio at 120 min, 5 μM (MDR1) | Papp A→B at 120 min, 5 μM (MDR1 (P-gp) [2]; A-B) [×10⁻⁶ cm/s] | Papp B→A at 120 min, 5 μM (MDR1 (P-gp) [2]; B-A) [×10⁻⁶ cm/s] | MDCK-MDR1: % Recov A-B ([3]; A-B) [%] | MDCK-MDR1: % Recov B-A ([3]; B-A) [%] | pEC50 [4, 10] | mHTT protein EC50 [4, 10] | Papp A→B at 120 min, 5 μM (MDR1 (P-gp) [5]) [×10⁻⁶ cm/s] | Papp B→A at 120 min, 5 μM (MDR1 (P-gp) [5]) [×10⁻⁶ cm/s] | efflux ratio at 120 min, 5 μM (MDR1 (P-gp) [5]) | MDCK-MDR1: % Recov A-B [6] [%] | MDCK-MDR1: % Recov B-A [6] [%]
1 | Cc1cnc(-c2ccc(-c3ccc(N(C)[C@@H]4C[C@H]5CC[C@H](N5)[C@@H]4F)nn3)c(O)c2)o1 [Compound 48A, 2-(6-(((1S,2S,3R,5R)-2-fluoro-8-azabicyclo[3.2.1]octan-3-yl)(methyl)amino)pyridazin-3-yl)-5-(5-methyloxazol-2-yl)phenol] | 7.82 to 11.00 | 8 | 3.71 | 29 | 58 | 76 | 7.00 to 7.29 |  |  |  |  |  |  |  |  |  |  |  |  | 
2 | CN(c1ccc(-c2cc3cncnc3cc2O)nn1)[C@@H]1C[C@H]2CC[C@H](N2)[C@@H]1F [Compound 75A, 6-(6-(((1S,2S,3R,5R)-2-fluoro-8-azabicyclo[3.2.1]octan-3-yl)(methyl)amino)pyridazin-3-yl)quinazolin-7-ol] | 7.00 to 7.29 | 22 | 2.31 | 50.3 | 101 | 100 | 6.30 to 7.00 |  |  |  |  |  |  |  |  |  |  |  |  | 
3 | CN(C)C(=O)c1cc2cc(O)c(-c3ccc(N(C4CC4)[C@H]4C[C@@H]5CC[C@@H](N5)[C@H]4F)nn3)cc2o1 [Compound 86B, 6-(6-(cyclopropyl((1R,2R,3S,5S)-2-fluoro-8-azabicyclo[3.2.1]octan-3-yl)amino)pyridazin-3-yl)-5-hydroxy-N,N-dimethylbenzofuran-2-carboxamide] | 7.00 to 7.29 | 66 | 0.81 | 53.6 | 88 | 92 | 7.30 to 7.80 |  |  |  |  |  |  |  |  |  |  |  |  | 
4 | CN(c1ccc(-c2cc3cnccc3cc2O)nn1)[C@H]1C[C@@H]2CC[C@H]([C@H]1F)N2C [Compound 93B, 7-(6-(((1R,2R,3S,5S)-2-fluoro-8-methyl-8-azabicyclo[3.2.1]octan-3-yl)(methyl)amino)pyridazin-3-yl)isoquinolin-6-ol] | 7.00 to 7.29 | 4 | 5.39 | 22.3 | 45 | 63 | 6.30 to 7.00 |  |  |  |  |  |  |  |  |  |  |  |  | 
5 | CN(c1ccc(-c2cc3ncn(C)c(=O)c3cc2O)nn1)[C@@H]1C[C@H]2CC[C@@H]([C@@H]1F)N2C [Compound 101A, 7-(6-(((1S,2S,3R,5R)-2-fluoro-8-methyl-8-azabicyclo[3.2.1]octan-3-yl)(methyl)amino)pyridazin-3-yl)-6-hydroxy-3-methylquinazolin-4(3H)-one] |  |  |  |  |  |  |  | 7.00 to 7.29 | 26 | 2.81 | 72.6 | 101 | 109 | 6.30 to 7.00 |  |  |  |  |  | 
6 | Cc1nc2cc(-c3ccc(N(C)[C@@H]4C[C@H]5CC[C@H](N5)[C@@H]4F)nn3)c(O)cc2c(=O)n1CC(F)(F)F [Compound 113A, 7-(6-(((1S,2S,3R,5R)-2-fluoro-8-azabicyclo[3.2.1]octan-3-yl)(methyl)amino)pyridazin-3-yl)-6-hydroxy-2-methyl-3-(2,2,2-trifluoroethyl)quinazolin-4(3H)-one] |  |  |  |  |  |  |  | 7.82 to 11.00 | 333 | 0.2 | 66.9 | 96 | 99 |  | E (501 ≤ E ≤ 10.000) |  |  |  |  | 
7 | CN(c1ccc(-c2cc3cnccc3cc2O)nn1)[C@H]1C[C@@H]2CC(F)(F)[C@H](C1)N2 [Compound 126B, 7-(6-(((1R,3S,5S)-6,6-difluoro-8-azabicyclo[3.2.1]octan-3-yl)(methyl)amino)pyridazin-3-yl)isoquinolin-6-ol] |  |  |  |  |  |  |  | 6.30 to 7.00 |  |  |  |  |  |  | E (501 ≤ E ≤ 10.000) | 12.6 | 39.4 | 3 | 75 | 88
